Reference: patent US20120202794A1 (priority 2011, published 2012)

Key:
[1] = tested on: HCV Replicon 1b; experiment: HCV inhibition assay, HCV replicon 1b (Clone A or ET-lunet cells; RT-PCR or luciferase reporter); assay type: cell-based; conditions: Hepatitis C virus, 96 h, HCV replicon 1b; 4 days incubation; read-out: Replicon 1b potency EC90
In short: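 Clone A (1500/well) or ET-lunet (3000/well) replicon cells treated with serially diluted compounds (0.5% DMSO, no G418) for 4 days at 37 °C. HCV RNA measured by one-step RT-PCR normalized to rRNA (ΔΔCt) or by luciferase luminescence versus DMSO controls; EC50/EC90 by curve fitting.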

[2] = Cell cytotoxicity assay (MTS), CC90 as reported in Table 1, cell line not stated; assay type: cell-based; conditions: human; cell line not given
In short: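 Compounds, serially diluted from 100 μM, were incubated 8 days at 37° C with Huh7, HepG2 or BxPC3 (2×10^3 cells/well) or CEM (5×10^3 cells/well). Viability was read by MTS, 2 h, absorbance 490 nm. CC90 (90% inhibition) was taken against untreated cells.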

Row | SMILES | EC90 [1] | CC90 at 8 days [2]
1 | CC(C)C[C@H]1C(=O)N[C@@H](c2ccccc2)CN1C(=O)c1cc(-c2ccc(Cl)cc2)on1 [Compound 183] | 60 nM | > 10000 nM
2 | CCC[C@H]1CN(C(=O)c2cc(-c3ccc(F)c(F)c3)on2)[C@@H](CC(C)C)C(=O)N1 [Compound 184] | 140 nM | > 10000 nM
3 | CC(C)C[C@H]1C(=O)N[C@@H](C2CCCCC2)CN1C(=O)c1cc(-c2ccc(F)c(F)c2)on1 [Compound 185] | 610 nM | > 10000 nM
4 | CC(C)C[C@H]1C(=O)N[C@@H](C2CCCC2)CN1C(=O)c1cc(-c2ccc(F)c(F)c2)on1 [Compound 186] | 260 nM | > 10000 nM
5 | CC(C)C[C@H]1C(=O)N[C@@H](C(C)C)CN1C(=O)c1cc(-c2ccc(F)c(F)c2)on1 [Compound 187] | 620 nM | > 10000 nM
6 | CC(C)C[C@H]1C(=O)N[C@@H](c2ccccc2)CN1C(=O)c1cc(-c2ccc(F)c(F)c2)on1 [Compound 188] | 180 nM | > 10000 nM
7 | CCC[C@H]1CN(C(=O)c2cc(-c3ccc(F)cc3)no2)[C@@H](CC(C)C)C(=O)N1 [Compound 189] | 110 nM | > 10000 nM
8 | CC(C)C[C@H]1CN(C(=O)c2cc(-c3ccc(Cl)cc3)no2)[C@@H](CC(C)C)C(=O)N1 [Compound 190] | 320 nM | > 10000 nM
9 | CC(C)C[C@H]1C(=O)N[C@@H](CC2CC2)CN1C(=O)c1cc(-c2ccc(F)cc2)no1 [Compound 191] | 120 nM | > 10000 nM
10 | CC(C)C[C@H]1C(=O)N[C@@H](C2CCCCC2)CN1C(=O)c1cc(-c2ccc(F)cc2)no1 [Compound 193] | 50 nM | > 10000 nM
11 | CC(C)C[C@H]1C(=O)N[C@@H](C2CCCC2)CN1C(=O)c1cc(-c2ccc(F)cc2)no1 [Compound 194] | 40 nM | > 10000 nM
12 | CC(C)C[C@H]1CN(Cc2cc(-c3ccccc3)on2)[C@@H](CC(C)C)C(=O)N1 [Compound 195] | 750 nM | > 10000 nM
13 | CC(C)C[C@H]1CN(Cc2cc(-c3ccc(F)cc3)on2)[C@@H](CC(C)C)C(=O)N1 [Compound 196] | 80 nM | > 10000 nM
14 | CC(C)C[C@H]1CN(Cc2cc(-c3ccc(Cl)cc3)on2)[C@@H](CC(C)C)C(=O)N1 [Compound 197] | 240 nM | > 10000 nM
15 | CC(C)C[C@H]1CN(Cc2cc(-c3ccc(Br)cc3)on2)[C@@H](CC(C)C)C(=O)N1 [Compound 198] | 550 nM | > 10000 nM
16 | Cc1ccc(-c2cc(CN3C[C@H](CC(C)C)NC(=O)[C@@H]3CC(C)C)no2)cc1 [Compound 199] | 2150 nM | > 10000 nM
17 | COc1ccc(-c2cc(CN3C[C@H](CC(C)C)NC(=O)[C@@H]3CC(C)C)no2)cc1 [Compound 200, (3S,6S)-3,6-Diisobutyl-4-((5-(4-methoxyphenyl)isoxazol-3-yl)methyl)piperazin-2-one] | 5790 nM | > 10000 nM
18 | CC(C)C[C@H]1CN(Cc2cc(-c3ccco3)on2)[C@@H](CC(C)C)C(=O)N1 [Compound 201, (3S,6S)-4-((5-(Furan-2-yl)isoxazol-3-yl)methyl)-3,6-diisobutylpiperazin-2-one] | 1820 nM | > 10000 nM
19 | CC(C)C[C@H]1CN(Cc2cc(-c3cccs3)on2)[C@@H](CC(C)C)C(=O)N1 [Compound 202, (3S,6S)-3,6-Diisobutyl-4-((5-(thiophen-2-yl)isoxazol-3-yl)methyl)piperazin-2-one] | 880 nM | > 10000 nM
20 | CC(C)C[C@H]1C(=O)N[C@@H](C(C)(C)C)CN1Cc1cc(-c2ccc(F)cc2)on1 [Compound 205, (3S,6S)-6-(tert-butyl)-4-((5-(4-fluorophenyl)isoxazol-3-yl)methyl)-3-isobutylpiperazin-2-one] | 8900 nM | > 10000 nM

Row | SMILES | EC90 [1] | CC90 at 8 days [2]
21 | CCC[C@H]1CN(Cc2cc(-c3ccc(F)cc3)on2)[C@@H](CC(C)C)C(=O)N1 [Compound 206, (3S,6S)-4-((5-(4-fluorophenyl)isoxazol-3-yl)methyl)-3-isobutyl-6-propylpiperazin-2-one] | 210 nM | > 10000 nM
22 | CC(C)C[C@H]1C(=O)N[C@@H](C2CCCCC2)CN1Cc1cc(-c2ccc(F)cc2)on1 [Compound 207, (3S,6S)-6-cyclohexyl-4-((5-(4-fluorophenyl)isoxazol-3-yl)methyl)-3-isobutylpiperazin-2-one] | 860 nM | > 10000 nM
23 | CC(C)C[C@H]1C(=O)N[C@@H](C2CCCC2)CN1Cc1cc(-c2ccc(F)cc2)on1 [Compound 208, (3S,6S)-6-cyclopentyl-4-((5-(4-fluorophenyl)isoxazol-3-yl)methyl)-3-isobutylpiperazin-2-one] | 210 nM | > 10000 nM
24 | CC(C)C[C@H]1C(=O)N[C@@H](CC2CC2)CN1Cc1cc(-c2ccc(Cl)cc2)on1 [Compound 209, (3S,6S)-4-((5-(4-chlorophenyl)isoxazol-3-yl)methyl)-6-(cyclopropylmethyl)-3-isobutylpiperazin-2-one] | 670 nM | > 10000 nM
25 | CCC[C@H]1CN(Cc2cc(-c3ccc(Cl)cc3)on2)[C@@H](CC(C)C)C(=O)N1 [Compound 210, (3S,6S)-4-((5-(4-chlorophenyl)isoxazol-3-yl)methyl)-3-isobutyl-6-propylpiperazin-2-one] | 320 nM | > 10000 nM
26 | CC(C)C[C@H]1C(=O)N[C@@H](C2CCCCC2)CN1Cc1cc(-c2ccc(Cl)cc2)on1 [Compound 211, (3S,6S)-4-((5-(4-chlorophenyl)isoxazol-3-yl)methyl)-6-cyclohexyl-3-isobutylpiperazin-2-one] | 410 nM | > 10000 nM
27 | CC(C)C[C@H]1C(=O)N[C@@H](C2CCCC2)CN1Cc1cc(-c2ccc(Cl)cc2)on1 [Compound 212, (3S,6S)-4-((5-(4-chlorophenyl)isoxazol-3-yl)methyl)-6-cyclopentyl-3-isobutylpiperazin-2-one] | 260 nM | > 10000 nM
28 | CCC(C)[C@H]1CN(Cc2cc(-c3ccc(F)cc3)on2)[C@@H](CC(C)C)C(=O)N1 (some centres unmarked) [Compound 214] | 720 nM | > 10000 nM
29 | CC(C)C[C@H]1C(=O)N[C@@H](c2ccccc2)CN1Cc1cc(-c2ccc(F)cc2)on1 [Compound 215, (3S,6S)-4-((5-(4-fluorophenyl)isoxazol-3-yl)methyl)-3-isobutyl-6-phenylpiperazin-2-one] | 190 nM | > 10000 nM
30 | CC(C)C[C@H]1C(=O)N[C@@H](C2CC2)CN1Cc1cc(-c2ccc(F)cc2)on1 [Compound 216, (3S,6S)-6-cyclopropyl-4-((5-(4-fluorophenyl)isoxazol-3-yl)methyl)-3-isobutylpiperazin-2-one] | 1600 nM | > 10000 nM
31 | CSC[C@H]1CN(Cc2cc(-c3ccc(F)cc3)on2)[C@@H](CC(C)C)C(=O)N1 [Compound 217, (3S,6R)-4-[5-(4-Fluoro-phenyl)-isoxazol-3-ylmethyl]-3-isobutyl-6-methylsulfanylmethyl-piperazin-2-one] | 820 nM | > 10000 nM
32 | CSC[C@H]1CN(Cc2cc(-c3ccc(Cl)cc3)on2)[C@@H](CC(C)C)C(=O)N1 [Compound 218, (3S,6R)-4-((5-(4-chlorophenyl)isoxazol-3-yl)methyl)-3-isobutyl-6-((methylthio)methyl)piperazin-2-one] | 750 nM | > 10000 nM
33 | CC(C)C[C@H]1C(=O)N[C@@H](c2ccccc2)CN1Cc1cc(-c2ccc(Cl)cc2)on1 [Compound 219, (3S,6S)-4-((5-(4-chlorophenyl)isoxazol-3-yl)methyl)-3-isobutyl-6-phenylpiperazin-2-one] | 4500 nM | > 10000 nM
34 | CC(C)C[C@H]1CN(Cc2ccc(F)cc2C(F)(F)F)[C@@H](CC(C)C)C(=O)N1 [Compound 220, (3S,6S)-4-(4-fluoro-2-(trifluoromethyl)benzyl)-3,6-diisobutylpiperazin-2-one] | 8350 nM | > 10000 nM
35 | CC(C)C[C@H]1CN(Cc2ccc(F)c(C(F)(F)F)c2)[C@@H](CC(C)C)C(=O)N1 [Compound 221, (3S,6S)-4-(4-fluoro-3-(trifluoromethyl)benzyl)-3,6-diisobutylpiperazin-2-one] | > 10000 nM | > 10000 nM
36 | CC(C)C[C@H]1CN(Cc2cc(F)ccc2F)[C@@H](CC(C)C)C(=O)N1 [Compound 222, (3S,6S)-4-(2,5-difluorobenzyl)-3,6-diisobutylpiperazin-2-one] | 9700 nM | > 10000 nM
37 | CC(C)C[C@H]1CN(Cc2cc(C(F)(F)F)cc(C(F)(F)F)c2)[C@@H](CC(C)C)C(=O)N1 [Compound 223, (3S,6S)-4-(3,5-Bis-trifluoromethyl-benzyl)-3,6-diisobutyl-piperazin-2-one] | 4490 nM | > 10000 nM
38 | CC(C)C[C@H]1CN(Cc2c(F)cccc2F)[C@@H](CC(C)C)C(=O)N1 [Compound 224, (3S,6S)-4-(2,6-Difluoro-benzyl)-3,6-diisobutyl-piperazin-2-one] | 8360 nM | > 10000 nM
39 | CCc1ccc(CN2C[C@H](CC(C)C)NC(=O)[C@@H]2CC(C)C)cc1 [Compound 225, (3S,6S)-4-(4-Ethyl-benzyl)-3,6-diisobutyl-piperazin-2-one] | 3510 nM | > 10000 nM
40 | CC(C)C[C@H]1CN(Cc2ccc(Cl)c(Cl)c2)[C@@H](CC(C)C)C(=O)N1 [Compound 226, (3S,6S)-4-(3,4-Dichloro-benzyl)-3,6-diisobutyl-piperazin-2-one] | 8870 nM | > 10000 nM
